Measurements from patent US20260137706A1, “METHODS OF TREATING INFLAMMATORY DISEASES” (INTERLINE THERAPEUTICS, INC., priority 2023, published 2026).

Columns and labels:
[1] = target: T1, binding of His-XIAP(BIR2)-avi fusion protein to GST-RIPK2 fusion protein (RIPK2/XIAP) (Homo sapiens, UniProt O43353); test: RIPK2-XIAP binding competition PPI assay (TR-FRET); settings: RIPK2/XIAP binding competition PPI assay; for Emax: Amax, read-out: PPI Amax bin; for IC50: read-out: PPI IC50 bin
T1 construct: made in house; host or cells: baculovirus infected Sf9 cells
T1 sequence (O43353 1-310 limits assumed): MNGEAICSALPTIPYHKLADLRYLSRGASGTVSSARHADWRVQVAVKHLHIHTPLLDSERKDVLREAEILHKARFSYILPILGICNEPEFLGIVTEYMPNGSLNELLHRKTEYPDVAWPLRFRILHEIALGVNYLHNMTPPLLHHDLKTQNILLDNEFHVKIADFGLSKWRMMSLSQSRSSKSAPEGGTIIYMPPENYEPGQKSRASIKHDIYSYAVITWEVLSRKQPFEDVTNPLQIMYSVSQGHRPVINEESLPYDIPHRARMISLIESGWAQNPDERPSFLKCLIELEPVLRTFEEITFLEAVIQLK
Method in brief: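 Compounds (in DMSO, 100-fold stock) incubated 120 min at 23 °C with 1 nM GST-RIPK2 (aa 1-310) and 25 nM His-XIAP(BIR2 aa 152-231)-avi, plus anti-His-XL665 and anti-GST-Tb, in pH 7.5 Tris buffer. Read-out: 665/520 nm emission ratio. Normalized to no-inhibitor (0%) and 50 nM GSK583 (−100%); Amax binned A–D.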

[2] = target: T2, GST-RIPK2 fusion protein (human RIPK2, amino acids 1-310) (Homo sapiens, UniProt O43353); test: RIPK2 binding competition assay (TR-FRET, Tracer 199 displacement); settings: 10 nM Tracer 199, 1 nM GST-RIPK2, read-out: RIPK2 IC50
T2 construct: made in house; host or cells: baculovirus infected Sf9 cells
T2 sequence (O43353 1-310): as the sequence (O43353 1-310 limits assumed) above
Method in brief: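 IC50 derived from the TR-FRET emission ratio (665/620 nm, 337 nm excitation), normalized with no-inhibitor and no-enzyme controls. Incubation 45 min at 22 °C, pH 7.5 Tris buffer, with final 10 nM tracer, 1 nM Sf9-expressed GST-RIPK2 fragment (aa 1-310) and 0.5 nM Tb-labelled anti-GST.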

[3] = tested on: NF-κB pathway (SEAP) in THP1-Dual cells; test: THP-1 Dual cell SEAP assay (L18-MDP stimulated); format: cell-based; settings: Homo sapiens, THP1-Dual, read-out: NF-κB THP1 IC50 bin
Method in brief: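 IC50 values derive from non-linear regression of % inhibition, calculated against DMSO/L18-MDP-treated wells after media-only subtraction. NF-κB SEAP activity was read at OD 620-655 nm (QUANTI-Blue, 2 h, 37 °C) from supernatants of THP1-Dual cells. Cells had been compound-treated 30 min before overnight (20-24 h) stimulation with 10 ng/mL final L18-MDP.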

Row | SMILES | Emax [1] [%] | IC50 [1] [nM] | IC50 [2] [nM] | IC50 [3] [nM]
1 | COc1cc2ncc(-c3cc(F)c4nc(C)cn4c3)n2cc1S(=O)(=O)C(C)(C)C [Example 109, 6-(tert-butylsulfonyl)-8′-fluoro-7-methoxy-2′-methyl-3,6′-biimidazo[1,2-a]pyridine] | < 30 | > 20 | > 20 | > 1000
2 | COc1cc2ncc(-c3ccc4ncoc4c3)n2cc1S(=O)(=O)C(C)(C)C [Example 110, 6-(6-(tert-butylsulfonyl)-7-methoxyimidazo[1,2-a]pyridin-3-yl)benzo[d]oxazole] | < 30 | > 20 | > 20 | > 1000
3 | COc1cc2ncc(-c3ccc4nn(C)cc4c3)n2cc1S(=O)(=O)C(C)(C)C [Example 111, 5-(6-(tert-butylsulfonyl)-7-methoxyimidazo[1,2-a]pyridin-3-yl)-2-methyl-2H-indazole] | < 30 | > 20 | > 20 | > 1000
4 | COc1cc2ncc(-c3cnn4ccccc34)n2cc1S(=O)(=O)C(C)(C)C [Example 112, 6-(tert-butylsulfonyl)-7-methoxy-3-(pyrazolo[1,5-a]pyridin-3-yl)imidazo[1,2-a]pyridine] | < 30 | > 20 | > 20 | > 1000
5 | COc1cc2ncc(-c3ccc4cncn4c3)n2cc1S(=O)(=O)C(C)(C)C [Example 113, 6-(tert-butylsulfonyl)-3-(imidazo[1,5-a]pyridin-6-yl)-7-methoxyimidazo[1,2-a]pyridine] | < 30 | > 20 | > 20 | > 1000
6 | COc1cc2ncc(-c3cnn4ncccc34)n2cc1S(=O)(=O)C(C)(C)C [Example 114, 3-(6-(tert-butylsulfonyl)-7-methoxyimidazo[1,2-a]pyridin-3-yl)pyrazolo[1,5-b]pyridazine] | < 30 | > 20 | > 20 | > 1000
7 | COc1cc2ncc(-c3ccc4c(c3)nc(N)n4C)n2cc1S(=O)(=O)C(C)(C)C [Example 115, 5-(6-(tert-butylsulfonyl)-7-methoxyimidazo[1,2-a]pyridin-3-yl)-1-methyl-1H-benzo[d]imidazol-2-amine] | 55 to 80 | > 20 | > 20 | > 1000
8 | COc1cn2ncc(-c3cc(F)c(N)nc3F)c2nc1N1C(=O)OCC1(C)C [Example 116, 3-(3-(6-amino-2,5-difluoropyridin-3-yl)-6-methoxypyrazolo[1,5-a]pyrimidin-5-yl)-4,4-dimethyloxazolidin-2-one] | 55 to 80 | > 20 | > 20 | > 1000
9 | COc1cc2ncc(-c3cc(F)c(OC)c4[nH]cnc34)n2cc1S(=O)(=O)C(C)(C)C [Example 117, 4-(6-(tert-butylsulfonyl)-7-methoxyimidazo[1,2-a]pyridin-3-yl)-6-fluoro-7-methoxy-1H-benzo[d]imidazole] | 30 to 55 | 2.5 to 20 | 2.5 to 20 | 250 to 1000
10 | COc1cc2ncc(-c3cc(F)c(OC)c4[nH]c(C)nc34)n2cc1S(=O)(=O)C(C)(C)C [Example 118, 4-(6-(tert-butylsulfonyl)-7-methoxyimidazo[1,2-a]pyridin-3-yl)-6-fluoro-7-methoxy-2-methyl-1H-benzo[d]imidazole] | 55 to 80 | < 1 | 1 to 2.5 | 50 to 250
11 | COc1cc2ncc(-c3cc(F)c(OC)c4[nH]c(CO)nc34)n2cc1S(=O)(=O)C(C)(C)C [Example 119, (4-(6-(tert-butylsulfonyl)-7-methoxyimidazo[1,2-a]pyridin-3-yl)-6-fluoro-7-methoxy-1H-benzo[d]imidazol-2-yl)methanol] | 55 to 80 | < 1 | < 1 | < 50
12 | COc1cc2ncc(-c3cc(F)c(OC)c4[nH]ncc34)n2cc1S(=O)(=O)C(C)(C)C [Example 120, 4-(6-(tert-butylsulfonyl)-7-methoxyimidazo[1,2-a]pyridin-3-yl)-6-fluoro-7-methoxy-1H-indazole] | 55 to 80 | 2.5 to 20 | 2.5 to 20 | > 1000
13 | COc1cc2ncc(-c3cc(F)c(OC)c4c3cnn4CCO)n2cc1S(=O)(=O)C(C)(C)C [Example 121, 2-(4-(6-(tert-butylsulfonyl)-7-methoxyimidazo[1,2-a]pyridin-3-yl)-6-fluoro-7-methoxy-1H-indazol-1-yl)ethan-1-ol] | 55 to 80 | > 20 | > 20 | > 1000
14 | COc1cc2ncc(-c3cc(F)c(OC)c4nn(CCO)cc34)n2cc1S(=O)(=O)C(C)(C)C [Example 122, 2-(4-(6-(tert-butylsulfonyl)-7-methoxyimidazo[1,2-a]pyridin-3-yl)-6-fluoro-7-methoxy-2HI-indazol-2-yl)ethan-1-ol] | < 30 | > 20 | > 20 | > 1000
15 | COc1cc2ncc(-c3cnc4c(c3)OCCN4C)n2cc1S(=O)(=O)C(C)(C)C [Example 123, 7-(6-(tert-butylsulfonyl)-7-methoxyimidazo[1,2-a]pyridin-3-yl)-4-methyl-3,4-dihydro-2H-pyrido[3,2-b][1,4]oxazine] | 30 to 55 | > 20 | > 20 | > 1000
16 | COc1cc2ncc(-c3cc(F)c(N)nc3F)n2cc1S(=O)(=O)C1(C)CCN(C2COC2)CC1 [Example 124, 3,6-difluoro-5-(7-methoxy-6-((4-methyl-1-(oxetan-3-yl)piperidin-4-yl)sulfonyl)imidazo[1,2-a]pyridin-3-yl)pyridin-2-amine] | > 80 | > 20 | 2.5 to 20 | > 1000
17 | COCCN1CCC(C)(S(=O)(=O)c2cn3c(-c4cc(F)c(N)nc4F)cnc3cc2OC)CC1 [Example 125, 3,6-difluoro-5-(7-methoxy-6-((1-(2-methoxyethyl)-4-methylpiperidin-4-yl)sulfonyl)imidazo[1,2-a]pyridin-3-yl)pyridin-2-amine] | > 80 | 2.5 to 20 | 2.5 to 20 | 250 to 1000
18 | CCCS(=O)(=O)Nc1cc(-c2cnc3cc(OC)c(S(=O)(=O)C(C)(C)CO)cn23)cc(F)c1OC [Example 126, N-(3-fluoro-5-(6-((1-hydroxy-2-methylpropan-2-yl)sulfonyl)-7-methoxyimidazo[1,2-a]pyridin-3-yl)-2-methoxyphenyl)propane-1-sulfonamide] | > 80 | < 1 | < 1 | < 50
19 | CCCS(=O)(=O)Nc1cc(-c2cnc3cc(OC)c(C4(O)CCOCC4)cn23)cc(F)c1OC [Example 127, N-(3-fluoro-5-(6-(4-hydroxytetrahydro-2H-pyran-4-yl)-7-methoxyimidazo[1,2-a]pyridin-3-yl)-2-methoxyphenyl)propane-1-sulfonamide] | > 80 | 1 to 2.5 | 1 to 2.5 | 50 to 250
20 | CCS(=O)(=O)Nc1cc(-c2cnc3cc(OC)c(S(=O)(=O)C(C)(C)CO)cn23)cc(Cl)c1OC [Example 128, N-(3-chloro-5-(6-((1-hydroxy-2-methylpropan-2-yl)sulfonyl)-7-methoxyimidazo[1,2-a]pyridin-3-yl)-2-methoxyphenyl)ethanesulfonamide] | 55 to 80 | 1 to 2.5 | 1 to 2.5 | 50 to 250
21 | CCCS(=O)(=O)Nc1cc(-c2cnc3cc(OC)c(S(=O)(=O)C(C)(C)CO)cn23)cc(Cl)c1OC [Example 129, N-(3-chloro-5-(6-((1-hydroxy-2-methylpropan-2-yl)sulfonyl)-7-methoxyimidazo[1,2-a]pyridin-3-yl)-2-methoxyphenyl)propane-1-sulfonamide] | > 80 | < 1 | < 1 | 50 to 250
22 | CCS(=O)(=O)Nc1cc(-c2cnn3cc(OCCO)c(S(=O)(=O)C(C)(C)C)cc23)cc(F)c1OC [Example 130, N-(5-(5-(tert-butylsulfonyl)-6-(2-hydroxyethoxy)pyrazolo[1,5-a]pyridin-3-yl)-3-fluoro-2-methoxyphenyl)ethanesulfonamide] | 55 to 80 | < 1 | < 1 | < 50
23 | CCS(=O)(=O)Nc1cc(-c2cnn3cc(OC)c(N4C(=O)OCC4(C)C)nc23)cc(F)c1OC [Example 131, N-(5-(5-(4,4-dimethyl-2-oxooxazolidin-3-yl)-6-methoxypyrazolo[1,5-a]pyrimidin-3-yl)-3-fluoro-2-methoxyphenyl)ethanesulfonamide] | > 80 | 2.5 to 20 | 2.5 to 20 | 250 to 1000
24 | CCCS(=O)(=O)Nc1cc(-c2cnn3cc(OC)c(S(=O)(=O)C(C)(C)CO)cc23)cc(F)c1OC [Example 132] | > 80 | < 1 | < 1 | < 50
